Results published in patent publication US20260027123A1, “Compositions for Modulating Lipoxygenase and Methods of Using Same” (The Regents of the University of California, priority 2022, published 2026).
Values joined by “and” are separate entries in the source; they are usually repeats but may differ in a detail not shown here. Equal values may be shown once.

Key:
Assay type in all cases: physicochemical
[1] = Soluble after 24 hours at room temperature; details: Table 2, 20/80 DMA/PEG400
[2] = Compositions prepared by mixing with solvent and sonication; soluble yes/no; details: Table 2
Method: (§1) Compositions were generally prepared by mixing with solvent and sonicated at room temperature in a water bath for 10 minutes. After a 15 minute waiting period at room temperature, the composition was sonicated again for 15 minutes at room temperature. Table 1 provides a list of formulations prepared for Compound 27332 according to certain embodiments. Table 2 provides a list of formulations prepared for 5-(methylamino)-2-naphthalen-1-yl-1,3-oxazole-4-carbonitrile (Compound ML351) according to certain embodiments. Compositions were analyzed by absorbance spectrometry at 340 nm to characterize the solubility of the compounds in each solvent mixture. Measurements were taken using a Cary60 spectrophotometer. Briefly, 2 ml absolute EtOH was added to cuvette, and instrument blanked. Then 2 μl of the excipient buffer was added, and scanned from 450 nm to 200 nm in order to confirm no large/interfering peak at 340 nm. Next, 2 μl of […] (in absolute EtOH) was added to the cuvette and scanned (450 nm to 200 nm)—this was repeated twice more for a total of three measurements. The difference in Abs(340) was determined for each subsequent addition. These three measurements were used to calculate the concentration (in molarity) using previously determined epsilon, and converted back to mg/ml.

[3] = Absorbance spectrometry at 340 nm to characterize solubility in each solvent mixture (measured concentration); details: Table 2
Method: as §1

[4] = Viscosity of the composition; details: Table 2
[5] = 20/80 DMA/PEG400, Approx Conc. 50 mg/ml
[6] = 20/80 DMA/PEG400, Approx Conc. 78.1 mg/ml
[7] = 20/80 DMA/PEG400, Approx Conc. 90.5 mg/ml
[8] = 20/80 Diethylacetamide/PEG400, Approx Conc. 50 mg/ml
[9] = Intralipid, Approx Conc. 0.250 mg/ml

Soluble after 24 hours at Room Temperature ([1]; Approx Conc. 50 mg/ml): yes
Soluble after 24 hours at Room Temperature ([1]; Approx Conc. 78.1 mg/ml): yes
Soluble [2, 5]: yes
Soluble [2, 6]: yes
Soluble [2, 7]: No
Soluble [2, 8]: yes
Soluble [2, 9]: yes
Measured Conc. [3, 5]: 46.1 mg/mL
Measured Conc. [3, 6]: 75.7 mg/mL
Measured Conc. [3, 7]: 66.3 mg/mL and 54.9 mg/mL
Measured Conc. [3, 8]: 52.5 mg/mL and 45.5 mg/mL
Measured Conc. [3, 9]: 0.315 mg/mL
Viscosity [4, 5]: low
Viscosity [4, 6]: low
Viscosity [4, 7]: low
Viscosity [4, 8]: low
Viscosity [4, 9]: low
Compound: CNc1oc(-c2cccc3ccccc23)nc1C#N [ML351, 5-(methylamino)-2-naphthalen-1-yl-1,3-oxazole-4-carbonitrile]
